Test results published in ChEMBL document CHEMBL1159059, “Fluoroalkene modification of mercaptoacetamide-based histone deacetylase inhibitors” (Bioorg Med Chem, 2010).

These molecules were tested against Histone deacetylase (assay: Inhibition of HDAC in human HeLa cell nuclear extract by fluorescence assay).
Type: cell-based

Row | IC50 [nM] | Structure (SMILES)
1 | 360 | O=C(CCCCC/C=C(\F)CS)Nc1ccccc1
2 | 510 | O=C(CCCC/C=C(\F)CS)Nc1ccccc1
3 | 290 | O=C(NCCCCC/C=C(\F)CS)c1ccccc1
